Experimental findings from US20240025884A1 (Dong-A ST Co., Ltd., priority 2022, published 2024) are described below.

pIC50: −log10 of the molar value.

Chain of GCN2 (Q9P2K8 whole entry): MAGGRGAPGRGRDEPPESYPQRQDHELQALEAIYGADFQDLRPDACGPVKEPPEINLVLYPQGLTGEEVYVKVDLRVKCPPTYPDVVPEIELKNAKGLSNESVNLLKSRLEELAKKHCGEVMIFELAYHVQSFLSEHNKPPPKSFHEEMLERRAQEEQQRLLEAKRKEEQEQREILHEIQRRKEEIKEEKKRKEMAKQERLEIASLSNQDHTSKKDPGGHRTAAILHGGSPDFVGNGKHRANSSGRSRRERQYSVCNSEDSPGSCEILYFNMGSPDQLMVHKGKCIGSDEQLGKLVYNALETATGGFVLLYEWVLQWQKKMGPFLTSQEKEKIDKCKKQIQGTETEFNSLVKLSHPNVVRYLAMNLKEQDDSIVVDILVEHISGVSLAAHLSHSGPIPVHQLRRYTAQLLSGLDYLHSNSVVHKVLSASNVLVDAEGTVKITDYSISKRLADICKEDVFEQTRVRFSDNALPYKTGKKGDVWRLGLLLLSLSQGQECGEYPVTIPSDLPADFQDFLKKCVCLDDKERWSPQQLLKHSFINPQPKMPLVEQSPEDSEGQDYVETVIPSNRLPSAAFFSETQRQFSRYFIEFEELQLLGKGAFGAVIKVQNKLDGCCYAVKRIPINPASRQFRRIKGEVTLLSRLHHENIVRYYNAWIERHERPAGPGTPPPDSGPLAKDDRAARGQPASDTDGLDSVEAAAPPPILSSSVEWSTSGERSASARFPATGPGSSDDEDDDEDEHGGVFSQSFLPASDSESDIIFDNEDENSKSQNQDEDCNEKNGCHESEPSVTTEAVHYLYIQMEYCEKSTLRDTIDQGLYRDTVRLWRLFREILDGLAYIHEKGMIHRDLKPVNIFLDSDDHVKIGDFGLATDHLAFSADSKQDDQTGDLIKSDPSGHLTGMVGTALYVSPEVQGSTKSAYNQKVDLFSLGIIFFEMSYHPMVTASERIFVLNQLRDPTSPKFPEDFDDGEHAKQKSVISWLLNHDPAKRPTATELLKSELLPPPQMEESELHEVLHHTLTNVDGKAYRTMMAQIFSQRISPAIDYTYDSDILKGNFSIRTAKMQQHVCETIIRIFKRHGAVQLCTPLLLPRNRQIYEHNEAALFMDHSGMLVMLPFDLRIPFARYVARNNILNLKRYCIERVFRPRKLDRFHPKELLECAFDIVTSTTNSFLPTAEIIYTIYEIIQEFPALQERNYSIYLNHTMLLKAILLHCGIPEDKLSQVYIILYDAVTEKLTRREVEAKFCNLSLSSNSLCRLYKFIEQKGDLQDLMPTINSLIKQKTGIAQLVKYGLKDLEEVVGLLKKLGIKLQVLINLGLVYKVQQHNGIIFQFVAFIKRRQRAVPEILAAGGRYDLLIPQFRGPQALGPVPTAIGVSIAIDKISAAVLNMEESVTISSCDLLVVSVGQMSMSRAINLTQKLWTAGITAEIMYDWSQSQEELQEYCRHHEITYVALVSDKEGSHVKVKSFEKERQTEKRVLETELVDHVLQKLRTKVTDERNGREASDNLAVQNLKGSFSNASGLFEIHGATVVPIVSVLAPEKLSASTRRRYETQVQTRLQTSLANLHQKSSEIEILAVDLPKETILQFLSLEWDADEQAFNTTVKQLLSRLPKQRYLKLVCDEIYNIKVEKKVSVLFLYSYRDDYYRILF

This assay addresses GCN2 (Homo sapiens (Human), UniProt Q9P2K8). Put plainly: GCN2 Biochemical Assay (TR-FRET, GFP-eIF2S1 substrate phosphorylation). Particulars: read-out: IC50 (GCN2 Inhibitory Activity). Summed up: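 TR-FRET readout (Ex 340, Em 490/520 nm) after 2–3 h with Tb-labelled phospho-eIF2S1 antibody in stop mix, following a 70 min room-temperature kinase step. Reaction: in-house GCN2, GFP-eIF2S1, ATP, tRNA in Tris pH 7.5 (2× stocks 1.6 nM, 50 nM, 0.2 mM); compounds tested at 10 concentrations, with a phospho-substrate artifact counter-plate.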
(In general: Time-resolved FRET reads energy transfer from a long-lived donor to a nearby acceptor.)
On to `Cc1cnc(Nc2cc(C)n(C)n2)nc1-c1c[nH]c2c(NC(=O)CN3CC[C@H](Oc4nc(N)nc(N5CCCC5)n4)C3)cccc12` [Example 139, (S)-2-(3-((4-amino-6-(pyrrolidin-1-yl)-1,3,5-triazin-2-yl)oxy)pyrrolidin-1-yl)-N-(3-(2-((1,5-dimethyl-1H-pyrazol-3-yl)amino)-5-methylpyrimidin-4-yl)-1H-indol-7-yl)acetamide], for which the negative-log IC50 (pIC50) (in general, −log10 of the IC50, conventionally taken in molar units) is more than 8.00.
The result for `Cc1cnc(Nc2cc(C)n(C)n2)nc1-c1c[nH]c2c(NC(=O)CN3CC[C@H](Oc4ccnc(N5CCCCC5)n4)C3)cccc12` [Example 223, (S)-N-(3-(2-((1,5-dimethyl-1H-pyrazol-3-yl)amino)-5-methylpyrimidin-4-yl)-1H-indol-7-yl)-2-(3-((2-(piperidin-1-yl)pyrimidin-4-yl)oxy)pyrrolidin-1-yl)acetamide] reads 7.00 to 8.00; that for `Cc1cnc(Nc2cc(C)n(C)n2)nc1-c1c[nH]c2c(NC(=O)CN3CC[C@H](Oc4cncc(NCCN(C)C)n4)C3)cccc12` [Example 247, (S)-N-(3-(2-((1,5-dimethyl-1H-pyrazol-3-yl)amino)-5-methylpyrimidin-4-yl)-1H-indol-7-yl)-2-(3-((6-((2-(dimethylamino)ethyl)amino)pyrazin-2-yl)oxy)pyrrolidin-1-yl)acetamide], more than 8.00; that for `Cc1cnc(Nc2cc(C)n(C)n2)nc1-c1c[nH]c2c(N3Cc4c(cccc4-c4ccc(OC(F)(F)F)cc4)C3=O)cccc12` [Example 395, 2-(3-(2-((1,5-dimethyl-1H-pyrazol-3-yl)amino)-5-methylpyrimidin-4-yl)-1H-indol-7-yl)-4-(4-(trifluoromethoxy)phenyl)isoindolin-1-one], 7.00 to 8.00.
Under `Cc1cnc(Nc2cc(C)n(C)n2)nc1-c1c[nH]c2c(NC(=O)CN3CC[C@H](Oc4ccsc4C)C3)cccc12` [Example 115, (S)-N-(3-(2-((1,5-dimethyl-1H-pyrazol-3-yl)amino)-5-methylpyrimidin-4-yl)-1H-indol-7-yl)-2-(3-((2-methylthiophen-3-yl)oxy)pyrrolidin-1-yl)acetamide] stands 7.00 to 8.00; under `Cc1cnc(Nc2cc(C)n(C)n2)nc1-c1c[nH]c2c(N3Cc4c(Br)ccc(F)c4C3=O)cccc12` [Example 283, 4-bromo-2-(3-(2-((1,5-dimethyl-1H-pyrazol-3-yl)amino)-5-methylpyrimidin-4-yl)-1H-indol-7-yl)-7-fluoroisoindolin-1-one], more than 8.00; under `Cc1cnc(Nc2cc(C)n(C)n2)nc1-c1c[nH]c2c(N3Cc4c(cccc4-c4cncnc4)C3=O)cccc12` [Example 417, 2-(3-(2-((1,5-dimethyl-1H-pyrazol-3-yl)amino)-5-methylpyrimidin-4-yl)-1H-indol-7-yl)-4-(pyrimidin-5-yl)isoindolin-1-one], more than 8.00.
The result for `Cc1cc(-c2cccc3c2CN(c2cccc4c(-c5nc(Nc6cc(C)n(C)n6)ncc5C)c[nH]c24)C3=O)cc(C)n1` [Example 479, 2-(3-(2-((1,5-dimethyl-1H-pyrazol-3-yl)amino)-5-methylpyrimidin-4-yl)-1H-indol-7-yl)-4-(2,6-dimethylpyridin-4-yl)isoindolin-1-one] reads more than 8.00; that for `Cc1cnc(Nc2cc(C)n(C)n2)nc1-c1c[nH]c2c(N3Cc4c(Br)cncc4C3=O)cccc12` [Example 289, 7-bromo-2-(3-(2-((1,5-dimethyl-1H-pyrazol-3-yl)amino)-5-methylpyrimidin-4-yl)-1H-indol-7-yl)-1,2-dihydro-3H-pyrrolo[3,4-c]pyridin-3-one], more than 8.00; that for `Cc1cnc(Nc2cc(C)n(C)n2)nc1-c1c[nH]c2c(N3Cc4ccc(C#Cc5ccccc5)cc4C3=O)cccc12` [Example 355], less than 6.00.
Regarding `Cc1cnc(Nc2cc(C)n(C)n2)nc1-c1c[nH]c2c(N3Cc4c(ccnc4-c4ccnc(F)c4)C3=O)cccc12` [Example 504, 2-(3-(2-((1,5-dimethyl-1H-pyrazol-3-yl)amino)-5-methylpyrimidin-4-yl)-1H-indol-7-yl)-4-(2-fluoropyridin-4-yl)-2,3-dihydro-1H-pyrrolo[3,4-c]pyridin-1-one], the negative-log IC50 (pIC50) was more than 8.00.
